System: B6 normal mice
Experiment: Fluorescence spectrometry tissue distribution of Cy5.5-labelled substances
Assay type: in vivo
Details: 24 hours after administration, Cy5.5 label
Protocol: Next, the present inventors performed an experiment in B6 normal mice in order to observe the distribution in each tissue and organ according to the administration of a bispecific fusion protein according to an embodiment of the present invention. Cy5.5 was used as a fluorophore for tracking the distribution after administration of each substance. Buffer exchange was performed for each substance to be administered, MG12-1, MG12-4, and GLP-1Fc homodimer with boric acid buffer (pH 8.5), and with reference to the protocol of the Cy5.5 labeling kit (GE, #PA15605) were allowed to react with an appropriate amount of Cy5.5 overnight under refrigeration conditions. Unreacted Cy5.5 in the reaction-completed substance was removed through the PBS substitution process, and whether Cy5.5 was reacted well was confirmed through the final SDS-PAGE. Each administered substance was diluted with 10% DMSO/PBS to have the same fluorescence intensity using an ELISA plate reader capable of measuring fluorescence intensity before being administered.

Cy5.5 [reference compound]
0: Average fluorescence intensity, Brain | Average fluorescence intensity, Large intestine | Average fluorescence intensity, Small intestine
